Reference: PMC8459971, “Evaluation of the hepatotoxicity of the novel GPR40 (FFAR1) agonist CPL207280 in the rat and monkey” (PLoS ONE, 2021)
Read-outs that look alike come from different tables or passages of the source.

System: HepaRG spheroids
Assay: HepaRG 3D spheroids, cell and mitochondrial health markers, 14 days
Settings: for High Cell Loss (Cellular ATP) / High Cell Loss (DNA structure) / High Cell Loss (Glutathione content) / High Cell Loss (Mitochondrial mass) / High Cell Loss (Mitochondrial membrane potential) / High Cell Loss (Oxidative stress) / High Cell Loss (Spheroid count) / High Cell Loss (Spheroid size): timepoint 336; for AC50: Homo sapiens, HepaRG
[1] = HepaRG spheroid, TIMEPOINT 336, at the concentration (uM) given
[2] = HepaRG spheroid, TIMEPOINT 336, plotted value at the concentration given

- High Cell Loss (Cellular ATP) (CONC 0.4 uM, HepaRG spheroid): N
- High Cell Loss (DNA structure) (CONC 0.4 uM, HepaRG spheroid): N
- High Cell Loss (Glutathione content) (CONC 0.4 uM, HepaRG spheroid): N
- High Cell Loss (Mitochondrial mass) (CONC 0.4 uM, HepaRG spheroid): N
- High Cell Loss (Mitochondrial membrane potential) (CONC 0.4 uM, HepaRG spheroid): N
- High Cell Loss (Oxidative stress) (CONC 0.4 uM, HepaRG spheroid): N
- High Cell Loss (Spheroid count) (CONC 0.4 uM, HepaRG spheroid): N
- High Cell Loss (Spheroid size) (CONC 0.4 uM, HepaRG spheroid): N
- High Cell Loss (Cellular ATP) (CONC 1 uM, HepaRG spheroid): N
- High Cell Loss (DNA structure) (CONC 1 uM, HepaRG spheroid): N
- High Cell Loss (Glutathione content) (CONC 1 uM, HepaRG spheroid): N
- High Cell Loss (Mitochondrial mass) (CONC 1 uM, HepaRG spheroid): N
- High Cell Loss (Mitochondrial membrane potential) (CONC 1 uM, HepaRG spheroid): N
- High Cell Loss (Oxidative stress) (CONC 1 uM, HepaRG spheroid): N
- High Cell Loss (Spheroid count) (CONC 1 uM, HepaRG spheroid): N
- High Cell Loss (Spheroid size) (CONC 1 uM, HepaRG spheroid): N
- High Cell Loss (Cellular ATP) (CONC 4 uM, HepaRG spheroid): N
- High Cell Loss (DNA structure) (CONC 4 uM, HepaRG spheroid): N
- High Cell Loss (Glutathione content) (CONC 4 uM, HepaRG spheroid): N
- High Cell Loss (Mitochondrial mass) (CONC 4 uM, HepaRG spheroid): N
- High Cell Loss (Mitochondrial membrane potential) (CONC 4 uM, HepaRG spheroid): N
- High Cell Loss (Oxidative stress) (CONC 4 uM, HepaRG spheroid): N
- High Cell Loss (Spheroid count) (CONC 4 uM, HepaRG spheroid): N
- High Cell Loss (Spheroid size) (CONC 4 uM, HepaRG spheroid): N
- High Cell Loss (Cellular ATP) (CONC 10 uM, HepaRG spheroid): N
- High Cell Loss (DNA structure) (CONC 10 uM, HepaRG spheroid): N
- High Cell Loss (Glutathione content) (CONC 10 uM, HepaRG spheroid): N
- High Cell Loss (Mitochondrial mass) (CONC 10 uM, HepaRG spheroid): N
- High Cell Loss (Mitochondrial membrane potential) (CONC 10 uM, HepaRG spheroid): N
- High Cell Loss (Oxidative stress) (CONC 10 uM, HepaRG spheroid): N
- High Cell Loss (Spheroid count) (CONC 10 uM, HepaRG spheroid): N
- High Cell Loss (Spheroid size) (CONC 10 uM, HepaRG spheroid): N
- High Cell Loss (Cellular ATP) (CONC 40 uM, HepaRG spheroid): N
- High Cell Loss (DNA structure) (CONC 40 uM, HepaRG spheroid): N
- High Cell Loss (Glutathione content) (CONC 40 uM, HepaRG spheroid): N
- High Cell Loss (Mitochondrial mass) (CONC 40 uM, HepaRG spheroid): N
- High Cell Loss (Mitochondrial membrane potential) (CONC 40 uM, HepaRG spheroid): N
- High Cell Loss (Oxidative stress) (CONC 40 uM, HepaRG spheroid): N
- High Cell Loss (Spheroid count) (CONC 40 uM, HepaRG spheroid): N
- High Cell Loss (Spheroid size) (CONC 40 uM, HepaRG spheroid): N
- High Cell Loss (Cellular ATP) (CONC 100 uM, HepaRG spheroid): N
- High Cell Loss (DNA structure) (CONC 100 uM, HepaRG spheroid): N
- High Cell Loss (Glutathione content) (CONC 100 uM, HepaRG spheroid): N
- High Cell Loss (Mitochondrial mass) (CONC 100 uM, HepaRG spheroid): N
- High Cell Loss (Mitochondrial membrane potential) (CONC 100 uM, HepaRG spheroid): N
- High Cell Loss (Oxidative stress) (CONC 100 uM, HepaRG spheroid): N
- High Cell Loss (Spheroid count) (CONC 100 uM, HepaRG spheroid): N
- High Cell Loss (Spheroid size) (CONC 100 uM, HepaRG spheroid): N
- High Cell Loss (Cellular ATP) (CONC 400 uM, HepaRG spheroid): N
- High Cell Loss (DNA structure) (CONC 400 uM, HepaRG spheroid): N
- High Cell Loss (Glutathione content) (CONC 400 uM, HepaRG spheroid): N
- High Cell Loss (Mitochondrial mass) (CONC 400 uM, HepaRG spheroid): N
- High Cell Loss (Mitochondrial membrane potential) (CONC 400 uM, HepaRG spheroid): N
- High Cell Loss (Oxidative stress) (CONC 400 uM, HepaRG spheroid): N
- High Cell Loss (Spheroid count) (CONC 400 uM, HepaRG spheroid): N
- High Cell Loss (Spheroid size) (CONC 400 uM, HepaRG spheroid): N
- High Cell Loss (Cellular ATP) (CONC 1000 uM, HepaRG spheroid): N
- High Cell Loss (DNA structure) (CONC 1000 uM, HepaRG spheroid): N
- High Cell Loss (Glutathione content) (CONC 1000 uM, HepaRG spheroid): N
- High Cell Loss (Mitochondrial mass) (CONC 1000 uM, HepaRG spheroid): N
- High Cell Loss (Mitochondrial membrane potential) (CONC 1000 uM, HepaRG spheroid): N
- High Cell Loss (Oxidative stress) (CONC 1000 uM, HepaRG spheroid): N
- High Cell Loss (Spheroid count) (CONC 1000 uM, HepaRG spheroid): N
- High Cell Loss (Spheroid size) (CONC 1000 uM, HepaRG spheroid): N
Structure (SMILES): CCCCS(=N)(=O)CC[C@H](N)C(=O)O (stereo partly drawn) [L-buthionine-sulfoximine]
- Cellular ATP Mean Plotted Value (CONC 0.4 uM, TIMEPOINT 336): 1.06
- DNA structure Mean Plotted Value (CONC 0.4 uM, TIMEPOINT 336): 1
- Glutathione content Mean Plotted Value (CONC 0.4 uM, TIMEPOINT 336): 0.883
- Mitochondrial mass Mean Plotted Value (CONC 0.4 uM, TIMEPOINT 336): 1.03
- Mitochondrial membrane potential Mean Plotted Value (CONC 0.4 uM, TIMEPOINT 336): 0.945
- Oxidative stress Mean Plotted Value (CONC 0.4 uM, TIMEPOINT 336): 1.02
- Spheroid count Mean Plotted Value (CONC 0.4 uM, TIMEPOINT 336): 1
- Spheroid size Mean Plotted Value (CONC 0.4 uM, TIMEPOINT 336): 0.995
- Cellular ATP Mean Plotted Value (CONC 1 uM, TIMEPOINT 336): 1.05
- DNA structure Mean Plotted Value (CONC 1 uM, TIMEPOINT 336): 1.1
- Glutathione content Mean Plotted Value (CONC 1 uM, TIMEPOINT 336): 0.886
- Mitochondrial mass Mean Plotted Value (CONC 1 uM, TIMEPOINT 336): 1.14
- Mitochondrial membrane potential Mean Plotted Value (CONC 1 uM, TIMEPOINT 336): 1
- Oxidative stress Mean Plotted Value (CONC 1 uM, TIMEPOINT 336): 0.984
- Spheroid count Mean Plotted Value (CONC 1 uM, TIMEPOINT 336): 1
- Spheroid size Mean Plotted Value (CONC 1 uM, TIMEPOINT 336): 1.06
- Cellular ATP Mean Plotted Value (CONC 4 uM, TIMEPOINT 336): 0.856
- DNA structure Mean Plotted Value (CONC 4 uM, TIMEPOINT 336): 0.816
- Glutathione content Mean Plotted Value (CONC 4 uM, TIMEPOINT 336): 0.715
- Mitochondrial mass Mean Plotted Value (CONC 4 uM, TIMEPOINT 336): 1.03
- Mitochondrial membrane potential Mean Plotted Value (CONC 4 uM, TIMEPOINT 336): 0.861
- Oxidative stress Mean Plotted Value (CONC 4 uM, TIMEPOINT 336): 1
- Spheroid count Mean Plotted Value (CONC 4 uM, TIMEPOINT 336): 1
- Spheroid size Mean Plotted Value (CONC 4 uM, TIMEPOINT 336): 0.997
- Cellular ATP Mean Plotted Value (CONC 10 uM, TIMEPOINT 336): 0.697
- DNA structure Mean Plotted Value (CONC 10 uM, TIMEPOINT 336): 1.13
- Glutathione content Mean Plotted Value (CONC 10 uM, TIMEPOINT 336): 0.689
- Mitochondrial mass Mean Plotted Value (CONC 10 uM, TIMEPOINT 336): 0.979
- Mitochondrial membrane potential Mean Plotted Value (CONC 10 uM, TIMEPOINT 336): 0.943
- Oxidative stress Mean Plotted Value (CONC 10 uM, TIMEPOINT 336): 1.04
- Spheroid count Mean Plotted Value (CONC 10 uM, TIMEPOINT 336): 1
- Spheroid size Mean Plotted Value (CONC 10 uM, TIMEPOINT 336): 0.951
- Cellular ATP Mean Plotted Value (CONC 40 uM, TIMEPOINT 336): 0.216
- DNA structure Mean Plotted Value (CONC 40 uM, TIMEPOINT 336): 1.18
- Glutathione content Mean Plotted Value (CONC 40 uM, TIMEPOINT 336): 0.15
- Mitochondrial mass Mean Plotted Value (CONC 40 uM, TIMEPOINT 336): 1.05
- Mitochondrial membrane potential Mean Plotted Value (CONC 40 uM, TIMEPOINT 336): 0.972
- Oxidative stress Mean Plotted Value (CONC 40 uM, TIMEPOINT 336): 1.22
- Spheroid count Mean Plotted Value (CONC 40 uM, TIMEPOINT 336): 1
- Spheroid size Mean Plotted Value (CONC 40 uM, TIMEPOINT 336): 0.955
- Cellular ATP Mean Plotted Value (CONC 100 uM, TIMEPOINT 336): 0.019
- DNA structure Mean Plotted Value (CONC 100 uM, TIMEPOINT 336): 1.13
- Glutathione content Mean Plotted Value (CONC 100 uM, TIMEPOINT 336): 0.119
- Mitochondrial mass Mean Plotted Value (CONC 100 uM, TIMEPOINT 336): 1.03
- Mitochondrial membrane potential Mean Plotted Value (CONC 100 uM, TIMEPOINT 336): 0.807
- Oxidative stress Mean Plotted Value (CONC 100 uM, TIMEPOINT 336): 1.13
- Spheroid count Mean Plotted Value (CONC 100 uM, TIMEPOINT 336): 1
- Spheroid size Mean Plotted Value (CONC 100 uM, TIMEPOINT 336): 0.975
- Cellular ATP Mean Plotted Value (CONC 400 uM, TIMEPOINT 336): 0.00038
- DNA structure Mean Plotted Value (CONC 400 uM, TIMEPOINT 336): 0.279
- Glutathione content Mean Plotted Value (CONC 400 uM, TIMEPOINT 336): 0.0382
- Mitochondrial mass Mean Plotted Value (CONC 400 uM, TIMEPOINT 336): 0.963
- Mitochondrial membrane potential Mean Plotted Value (CONC 400 uM, TIMEPOINT 336): 0.452
- Oxidative stress Mean Plotted Value (CONC 400 uM, TIMEPOINT 336): 0.937
- Spheroid count Mean Plotted Value (CONC 400 uM, TIMEPOINT 336): 1
- Spheroid size Mean Plotted Value (CONC 400 uM, TIMEPOINT 336): 0.965
- Cellular ATP Mean Plotted Value (CONC 1000 uM, TIMEPOINT 336): 0.000301
- DNA structure Mean Plotted Value (CONC 1000 uM, TIMEPOINT 336): 0.123
- Glutathione content Mean Plotted Value (CONC 1000 uM, TIMEPOINT 336): 0.0358
- Mitochondrial mass Mean Plotted Value (CONC 1000 uM, TIMEPOINT 336): 0.999
- Mitochondrial membrane potential Mean Plotted Value (CONC 1000 uM, TIMEPOINT 336): 0.412
- Oxidative stress Mean Plotted Value (CONC 1000 uM, TIMEPOINT 336): 0.683
- Spheroid count Mean Plotted Value (CONC 1000 uM, TIMEPOINT 336): 1
- Spheroid size Mean Plotted Value (CONC 1000 uM, TIMEPOINT 336): 0.983
- Cellular ATP MEC (HepaRG spheroid, TIMEPOINT 336): 6.84 µM
- DNA structure MEC (HepaRG spheroid, TIMEPOINT 336): 222 µM
- Glutathione content MEC (HepaRG spheroid, TIMEPOINT 336): 2.95 µM
- Mitochondrial membrane potential MEC (HepaRG spheroid, TIMEPOINT 336): 177 µM
- Oxidative stress MEC (HepaRG spheroid, TIMEPOINT 336): 658 (NS) uM
- Cellular ATP MR (% @ concentration) [1]: 100%
- DNA structure MR (% @ concentration) [1]: 89%
- Glutathione content MR (% @ concentration) [1]: 96%
- Mitochondrial membrane potential MR (% @ concentration) [1]: 58%
- Oxidative stress MR (% @ concentration) [1]: 35%
- Cellular ATP MR [2]: 0.000301
- DNA structure MR [2]: 0.123
- Glutathione content MR [2]: 0.0358
- Mitochondrial membrane potential MR [2]: 0.412
- Oxidative stress MR [2]: 0.683
- AC50 (read-out: Cellular ATP AC50): 15.5 µM
- AC50 (read-out: DNA structure AC50): 294 µM
- AC50 (read-out: Glutathione content AC50): 16.2 µM
- AC50 (read-out: Mitochondrial mass AC50): > 1000 µM
- AC50 (read-out: Mitochondrial membrane potential AC50): 511 µM
- AC50 (read-out: Oxidative stress AC50): > 1000 µM
- AC50 (read-out: Spheroid count AC50): > 1000 µM
- AC50 (read-out: Spheroid size AC50): > 1000 µM
